Data reported in patent US11135445B2, “Antimicrobial photodynamic inactivation procedure and system” (The General Hospital Corporation, priority 2014, dated 2021).

Tests used:
E. coli [1] = test: RB-mediated aPDI in vitro with/without KI; assay type: cell-based, Escherichia coli K-12 (ATCC 33780); details: for killing: 10 μM RB
Procedure: (§1) A source of green light was configured from a white lamp and a band-pass filter probe (wavelength, 540±15 nm Lumacare, Newport Beach, Calif., USA) to deliver light over a spot of 4 cm in diameter to simultaneously irradiate four wells of a 24-well plate in vitro or the whole abrasion in vive at an irradiance of 100 mW/cm^2. Light power was measured with a power meter (model DMM 199 with a 201 standard head; Coherent, Santa Clara, Calif., USA).
(§2) The following microbial strains were used: the Gram-positive bacterium methicillin-resistant Staphylococcus aureus (MRSA) USA 300, Gram-negative bacteria Escherichia coli K-12 (ATCC 33780) and Pseurdomonas aeruginosa ATCC 19660 (Xen 5P), and strain CEC 749 of the luciferase-expressing fungal yeast Candida albicans. A colony of bacteria or fungal yeast was suspended in 20 ml of brain heart infusion (BHI) broth for bacteria or yeast extract-peptone-dextrose (YPD) for C. albicans and grown overnight in a shaker incubator (New Brunswick Scientific, Edison, N.J.) at 120 rpm under aerobic conditions at 37° C. for bacteria and at 30° C. for C. albicans. For bacteria, an aliquot of 1 ml from an overnight bacterial suspension was refreshed in fresh BHI for 2 to 3 h at 37° C. to mid-log phase. The cell concentration was estimated by measuring the optical density (OD) at 600 nm (OD of 0.6=10^8 cells/ml). The C. albicans cell number was assessed with a hemocytometer and was generally between 10^7 and 10^8 cells/ml.
(§3) Two types of in vitro aPDI experiments were carried out. The first experiments used cells with fixed RB and KI concentrations while varying the dose of irradiating light. The second type of experiments used cells with a fixed RB concentration and a fixed light dose while varying the KI concentration. Here, comparison was performed based on the order of addition of the components and the effect of centrifugation. […]

P. aeruginosa [2] = test: RB-mediated aPDI in vitro with/without KI; assay type: cell-based, Pseudomonas aeruginosa ATCC 19660 (Xen 5P); details: no KI
Procedure: as §1
as §2, with “The cell concentration was estimated by measuring the optical density (OD) at 600 nm (OD of 0.6=10^8 cells/ml).” left out, “cells/ml. […]” for “cells/ml.”

MRSA = test: RB-mediated aPDI in vitro with/without KI; assay type: cell-based, methicillin-resistant Staphylococcus aureus (MRSA) USA 300
Procedure: as §1, §2, §3

C. albicans = test: RB-mediated aPDI in vitro with/without KI; assay type: cell-based, Candida albicans CEC 749
Procedure: as §1
as §2, with “The cell concentration was estimated by measuring the optical density (OD) at 600 nm (OD of 0.6=10^8 cells/ml).” left out, “cells/ml. […]” for “cells/ml.”

P. aeruginosa [3] = test: In vivo PDT of skin abrasions infected with bioluminescent P. aeruginosa; set-up: species or system BALB/c mice; details: RB 500 μM, up to 20 J/cm^2
Procedure: The Pseudomonas aerugenosa strain used in this work was ATCC 19660 (Xen 5P). Bacteria were routinely grown in BHI with aeration in an orbital incubator at 100 rpm and 37° C. overnight to stationary phase. An aliquot of this suspension was then refreshed in fresh BHI to mid-log phase. Cell numbers were estimated by measuring the OD at 600 nm (OD of 0.6=10^8 CFU cells/ml). The bacterial suspension was centrifuged, washed, and resuspended in PBS, and the suspension was diluted 10-fold for the in vivo experiments.
An IVIS Lumina series III in vivo imaging system (PerkinElmer, Inc., Waltham, Mass., USA) was applied for bioluminescence imaging on a daily basis until the disappearance of the infection by bioluminescence imaging. Using the photon counting mode, an image can be obtained by detecting and integrating individual photons emitted by the bacterial cells. Prior to PDT and imaging, mice were anesthetized by intraperitoneal (i.p.) injection of a ketamine-xylazine cocktail. […] The signal from the bioluminescence image was quantified as the region of interest (ROI), with absolute calibrated data being given as the number of photons/(s cm^2 sr), using the IVIS software. […]
Mice were divided into four groups of 5 mice each. […] Then, the wounds were irradiated with green light at a fluence of up to 20 J/cm^2, and luminescence imaging was performed after irradiation.

S. aureus = test: Toxicity of KI alone on bacteria; assay type: cell-based, Staphylococcus aureus (NCTC 8325); details: KI 0-50 mM, 10 minutes, dark control and 5 J/cm^2 red light
Procedure: (§4) Since there existed a possibility that KI itself could exert an antimicrobial effect, to eliminate or at least account for the direct influence of the KI on the bacteria and to ensure that the final efficiency of the PDI process is attributed to the potentiation of the MB with the KI, additional qualitative performance evaluation tests were performed. Specifically, the bacteria cells (10^8 CFU; 500 uL) were incubated with different concentrations of KI (0-50 mM) for 10 minutes in order to verify the toxicity of KI. An aliquot of 100 μl from each sample, was used as dark control, another (100 μl) was irradiated with 5 J/cm^2 dose of light (660 nm light) and then placed in a new 96 well plate. The aliquots were serially diluted as before. The results presented in FIGS. 2A, 2B (for S. aureus and E. coli) verified that KI itself was not responsible for the increased potency of the PDI treatment observed in the experiments with the MCPPS.

E. coli [4] = test: Toxicity of KI alone on bacteria; assay type: cell-based, Escherichia coli K12 (ATCC 33780); details: KI 0-50 mM, 10 minutes, dark control and 5 J/cm^2 red light
Procedure: as §4

[5] = system: mammalian dermal skin fibroblasts; test: Effect of KI in vitro on mammalian cells; assay type: cell-based; details: 3 hours, KI 0.001-10 mM
[6] = Time-resolved singlet oxygen detection (1,270-nm phosphorescence); assay type: physicochemical
Procedure: The interaction of iodide with singlet oxygen photogenerated by RB was examined directly by measuring the lifetime of singlet oxygen at different concentrations of KI and indirectly by monitoring the effect of increasing concentrations of iodide on oxygen uptake induced by irradiation of the RB solution with green light. Time-resolved singlet oxygen detection was carried out as follows. Phosphate-buffered (pH 7.2) D2O solutions of RB (optical densitv,=0.25 to 0.3 at 550 nm) in a 1-cm-optical-path quartz fluorescence cuvette (catalog number QA-1000; Hellma, Mullheim. Germany) were excited by 550-nm pulses generated by an integrated nanosecond neodymium-doped yttrium aluminum garnet laser system equipped with a narrow-band-width optical parametric oscillator (model NT242-1k-SH/SFG; Ekspla. Vilnius, Lithuania), which delivered pulses at a repetition rate of 1 kHz with energy of up to several hundred microjoules in the visible region. […] The near-infrared luminescence (1,270 nm) was measured perpendicularly to the excitation beam in a photon-counting mode using a thermoelectric cooled near-infrared photomultiplier tube (NIR PMT) module (model H10330-45; Hamamatsu, Japan) equipped with a 1,100-nm-cutoff filter and an additional dichroic narrow-band filter narrow-band pass (NBP), selectable from the spectral range of 1,150 to 1,355 nm (NDC Infrared Engineering Ltd., Maldon, Essex, UK). […]

Compound | killing (E. coli [1]; no KI, 20 J/cm^2 540 nm) [logs] | killing (E. coli [1]; with or without 100 mM KI, 10 J/cm^2 540 nm) | killing by RB aPDI in the absence of KI (E. coli [1]; no KI) | killing by RB aPDI in the absence of KI (P. aeruginosa [2]) | killing (MRSA; 100 nM RB plus light, no KI) [logs] | killing after a spin (centrifugation) (MRSA; 100 nM RB, 10 J/cm^2) | RB concentration that produced eradication (MRSA; RB as antimicrobial PS plus light) [nM] | killing (C. albicans; 10 μM RB plus light, no KI, either fluence (10, 20 J/cm^2)) | killing, cells centrifuged after incubation with RB (C. albicans; 10 μM RB, 10 J/cm^2, KI up to 100 mM) | reduction in the bioluminescence signal with 540-nm light (P. aeruginosa [3]) | bacteria killing by KI alone (S. aureus) | bacteria killing by KI alone (E. coli [4]) | killing of mammalian cells by KI [5] | shortening of observable lifetime of singlet oxygen-dependent luminescence ([6]; 35 mM KI, RB in D2O) | bimolecular rate constant of quenching (kq) of singlet oxygen ([6]; RB-photogenerated singlet oxygen, KI 0 to 50 mM)
O=C1OC2(c3cc(I)c(O)c(I)c3Oc3c2cc(I)c(O)c3I)c2c(Cl)c(Cl)c(Cl)c(Cl)c21 [RB, Rose bengal] | 2 | less than 1 logs | almost no killing | almost no killing | 1 to 2 | centrifugation abolished the killing | 200 | no killing | some minor killing after centrifugation | only a slight reduction | – | – | – | – | –
[I-].[K+] [KI, potassium iodide] | – | – | – | – | – | – | – | – | – | – | no bacteria killing was found | no bacteria killing was found | did not kill mammalian cells | more than 3 fold | 1.1*10^6 l/(m*s)
